Read-outs that look alike come from different tables or passages of the source.
How the values were obtained:
[1] = test system: various CYPs tested (CYP2C9, CYP3A4, CYP2D6, CYP2E1); test: Ki of BzBr for the various CYPs tested (baculosomes, Diclof or pNP); conditions: equivalent substrate-BzBr concentrations
CYP2E1 [2] = target: T1, CYP2E1 (Homo sapiens, UniProt P05181); test: CYP2E1 baculosomes, pNP reaction; conditions: for Ki, Cheng-Prusoff method (in words): pNP reactions, CYP2E1 baculosomes, inhibitor 10 nM
T1 sequence (P05181 whole entry): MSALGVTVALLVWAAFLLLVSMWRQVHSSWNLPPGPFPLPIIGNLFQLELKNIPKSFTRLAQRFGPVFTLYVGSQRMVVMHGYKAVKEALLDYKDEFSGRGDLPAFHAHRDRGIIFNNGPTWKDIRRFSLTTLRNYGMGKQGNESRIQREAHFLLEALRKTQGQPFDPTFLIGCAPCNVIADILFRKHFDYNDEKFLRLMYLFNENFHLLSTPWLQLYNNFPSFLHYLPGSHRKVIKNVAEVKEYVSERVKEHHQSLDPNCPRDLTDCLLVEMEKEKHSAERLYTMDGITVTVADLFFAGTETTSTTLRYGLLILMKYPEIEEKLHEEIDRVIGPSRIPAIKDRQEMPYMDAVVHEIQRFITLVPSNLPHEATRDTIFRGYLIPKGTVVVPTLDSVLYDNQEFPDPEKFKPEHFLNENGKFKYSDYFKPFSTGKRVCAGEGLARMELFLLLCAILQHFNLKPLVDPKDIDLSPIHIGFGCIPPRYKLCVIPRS

[3] = test system: rat liver microsomes (mixed CYPs); test: Rat liver microsomes, diclofenac hydroxylation, inhibition; type: biochemical; conditions: for Global Ki, non-linear regression: KM taken as 10 µM
Excerpt: In some reactions, another method was used.

CYP2E1 [4] = target: T1, CYP2E1
CYP2C9 [5] = target: T2, CYP2C9 (Homo sapiens, UniProt P11712); conditions: ref [4]-[6]; cited from earlier work
T2 construct: purchased Life Technologies (and Panvera), Invitrogen
T2 sequence (P11712 whole entry): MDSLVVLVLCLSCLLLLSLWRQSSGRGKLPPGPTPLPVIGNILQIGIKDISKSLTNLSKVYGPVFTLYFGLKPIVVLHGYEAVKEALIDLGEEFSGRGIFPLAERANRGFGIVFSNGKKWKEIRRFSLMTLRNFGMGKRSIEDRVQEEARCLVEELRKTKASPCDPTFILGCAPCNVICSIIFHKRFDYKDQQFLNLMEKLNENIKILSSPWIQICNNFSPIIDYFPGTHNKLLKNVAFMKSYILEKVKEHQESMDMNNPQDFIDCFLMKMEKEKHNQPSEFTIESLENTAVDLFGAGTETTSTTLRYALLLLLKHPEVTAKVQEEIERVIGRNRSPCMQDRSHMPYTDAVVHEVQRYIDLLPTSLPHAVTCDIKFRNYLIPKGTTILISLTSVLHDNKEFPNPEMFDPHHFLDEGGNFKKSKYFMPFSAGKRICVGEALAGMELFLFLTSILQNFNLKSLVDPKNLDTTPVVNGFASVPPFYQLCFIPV

CYP2C9 [6] = target: T2, CYP2C9; test: CYP2C9 baculosomes, diclofenac hydroxylation, inhibition; type: biochemical; conditions: for Ki / Localized Ki, Chance equation / Localized Ki, Cheng-Prusoff equation / Global Ki, linear regression / Global Ki, non-linear regression: CYP2C9+Diclof;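 on all read-outs here: reactions run at 27 °C in 100 mM potassium phosphate, pH 7.4, in a 250 µl volume, with hydroxylated product quantified from HPLC peak areas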
CYP3A4 = target: T3, CYP3A4 (Homo sapiens, UniProt P08684); test: CYP3A4 baculosomes, diclofenac or pNP product formation; type: biochemical; conditions: CYP3A4 baculosomes 20 nM, inhibitor equivalent amount, 30 minutes
T3 construct: host or cells: baculosomes
T3 sequence (P08684 2-503 limits assumed): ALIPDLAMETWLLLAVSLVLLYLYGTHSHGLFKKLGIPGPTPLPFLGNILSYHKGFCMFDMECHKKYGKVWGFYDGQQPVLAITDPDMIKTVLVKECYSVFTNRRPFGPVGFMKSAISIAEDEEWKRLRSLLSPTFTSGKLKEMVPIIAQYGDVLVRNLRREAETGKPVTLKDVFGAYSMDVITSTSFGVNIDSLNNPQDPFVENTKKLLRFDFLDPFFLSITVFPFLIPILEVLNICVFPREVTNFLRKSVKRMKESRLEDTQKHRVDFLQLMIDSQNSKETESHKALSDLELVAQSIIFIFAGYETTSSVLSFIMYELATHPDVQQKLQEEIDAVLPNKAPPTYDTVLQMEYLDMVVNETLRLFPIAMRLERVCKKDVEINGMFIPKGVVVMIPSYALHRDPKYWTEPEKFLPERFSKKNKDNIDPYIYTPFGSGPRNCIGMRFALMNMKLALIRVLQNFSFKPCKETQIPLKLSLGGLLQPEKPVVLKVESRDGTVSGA

CYP2D6 = target: T4, CYP2D6 (Homo sapiens, UniProt P10635); test: CYP2D6 baculosomes, diclofenac or pNP product formation; type: biochemical; conditions: CYP2D6 baculosomes 20 nM, inhibitor equivalent amount, 30 minutes
T4 construct: host or cells: baculosomes
T4 sequence (P10635 whole entry): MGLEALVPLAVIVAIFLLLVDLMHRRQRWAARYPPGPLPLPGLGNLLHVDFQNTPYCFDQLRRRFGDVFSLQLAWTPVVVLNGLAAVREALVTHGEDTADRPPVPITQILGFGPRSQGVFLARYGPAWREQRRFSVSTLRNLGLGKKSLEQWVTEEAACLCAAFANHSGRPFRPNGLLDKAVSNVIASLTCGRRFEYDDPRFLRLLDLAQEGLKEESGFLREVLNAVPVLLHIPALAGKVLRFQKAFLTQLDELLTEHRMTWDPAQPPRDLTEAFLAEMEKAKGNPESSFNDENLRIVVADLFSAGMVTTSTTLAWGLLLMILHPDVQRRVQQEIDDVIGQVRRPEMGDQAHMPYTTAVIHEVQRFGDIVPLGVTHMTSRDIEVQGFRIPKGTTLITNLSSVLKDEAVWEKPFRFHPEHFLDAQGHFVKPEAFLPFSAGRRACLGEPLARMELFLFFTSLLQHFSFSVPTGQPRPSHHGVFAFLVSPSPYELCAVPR

[7] = Microsomes+Diclof, 0.5 µM CYP, 200 µM diclofenac, 400 µM NADPH
[8] = [I] 0.01 µM, read-out: Localized Ki, Chance equation
[9] = [I] 0.01 µM, read-out: Localized Ki, Cheng-Prusoff equation
[10] = [I] 1 µM, read-out: Localized Ki, Chance equation
[11] = [I] 1 µM, read-out: Localized Ki, Cheng-Prusoff equation
[12] = [I] 100 µM, read-out: Localized Ki, Cheng-Prusoff equation
[13] = 10 nM CYP, 100 µM diclofenac, 200 µM NADPH
[14] = KM taken as 10 µM, 10 nM CYP, 100 µM diclofenac, 200 µM NADPH

Compound: CCc1oc2ccccc2c1C(=O)c1cc(Br)c(O)c(Br)c1 [BzBr, benzbromarone]
- Ki derived from calculations (in words) [1]: Submicromolar
- Ki, Cheng-Prusoff method (in words) (CYP2E1 [2]): low nM ranges
- Global Ki, linear regression [3, 7]: -
- Global Ki, non-linear regression [3, 7]: -

Compound: CCc1oc2ccccc2c1C(=O)c1cc(I)c(O)c(I)c1 [BzIr, benziodarone]
- Ki, Cheng-Prusoff method (in words) (CYP2E1 [4]): low nM ranges
- Ki (CYP2C9 [5]): ≤ 1 nM
- Ki (CYP2C9 [6]; 10 nM CYP, 100 µM diclofenac, 200 µM NADPH, read-out: Global Ki, linear regression): 30900 nM
- Ki (CYP2C9 [6]; KM taken as 10 µM, 10 nM CYP, 100 µM diclofenac, 200 µM NADPH, read-out: Global Ki, non-linear regression): 2.8 nM
- Ki (CYP2C9 [6]; [8]): 243 nM
- Ki (CYP2C9 [6]; [9]): 2.6 nM
- Ki (CYP2C9 [6]; [10]): 995 nM
- Ki (CYP2C9 [6]; [11]): 9.1 nM
- Ki (CYP2C9 [6]; [I] 100 µM, read-out: Localized Ki, Chance equation): 190000 nM
- Ki (CYP2C9 [6]; [12]): 650 nM
- Global Ki, linear regression [3, 7]: -
- Global Ki, non-linear regression [3, 7]: -

Compound: O=C(O)c1cc(Br)c(O)c(Br)c1 [DBHB]
- Ki, Cheng-Prusoff method (in words) (CYP2E1 [2]): low nM ranges
- Ki (CYP2C9 [6]; [8]): 6.4 nM
- Ki (CYP2C9 [6]; [10]): 97700 nM
- Ki (CYP2C9 [6]; [11]): 89.9 nM
- Ki (CYP2C9 [6]; [12]): 8680 nM
- Ki via non-linear regression (in words) (CYP2C9 [6]; CYP2C9 baculosomes): sub-nanomolar
- Ki via linear regression analysis (in words) (CYP2C9 [6]; CYP2C9 baculosomes, same experimental data): supra-millimolar

Compound: COc1cc(Br)c(O)c(Br)c1 [DBMP]
- Ki, Cheng-Prusoff method (in words) (CYP2E1 [2]): low nM ranges
- Localized Ki, Chance equation (CYP2C9 [6]; [I] 0.01 µM): -
- Localized Ki, Cheng-Prusoff equation (CYP2C9 [6]; [I] 0.01 µM): -
- Ki (CYP2C9 [6]; [11]): 306 nM
- Ki (CYP2C9 [6]; [12]): 95400 nM

Compound: Oc1c(Br)cccc1Br [DBP]
- Ki, Cheng-Prusoff method (in words) (CYP2E1 [2]): low nM ranges
- Ki (CYP2C9 [6]; [11]): 2610 nM
- Localized Ki, Chance equation (CYP2C9 [6]; [I] 100 µM): -
- Localized Ki, Cheng-Prusoff equation (CYP2C9 [6]; [I] 100 µM): -
- Ki at 10 nM inhibitor (in words) (CYP2C9 [6]; CYP2C9 baculosome system, 10 nM): nanomolar
- Ki at 1 µM inhibitor (in words) (CYP2C9 [6]; CYP2C9 baculosome system, 1 µM): micromolar
- Inhibition at 100 µM (CYP2C9 [6]; CYP2C9 baculosome system, 100 µM): failed to give any inhibition
- Inhibition at 100 µM ([3]; mixed microsomes, 100 µM): failed to give any inhibition

Compound: NC(Cc1cc(I)c(O)c(I)c1)C(=O)O (centres unmarked) [DIT]
- Global Ki, linear regression (CYP2C9 [6]; [13]): -
- Global Ki, non-linear regression (CYP2C9 [6]; [14]): -
- Ki (CYP2C9 [6]; [8]): 5.5 nM
- Ki (CYP2C9 [6]; [9]): 0.7 nM
- Localized Ki, Chance equation (CYP2C9 [6]; [I] 1 µM): -
- Localized Ki, Cheng-Prusoff equation (CYP2C9 [6]; [I] 1 µM): -
- Ki (CYP2C9 [6]; [12]): 42600 nM

Compound: CCc1oc2ccccc2c1C(=O)c1cc(Br)c(OC)c(Br)c1 [MeOBzBr]
- Ki ([3]; read-out: Ki at 100 µM inhibitor, microsome setups, 100 µM inhibitor): 3700 nM

Compound: CCc1oc2ccccc2c1C(=O)c1cc(I)c(OC)c(I)c1 [MeOBzIr]
- Global Ki, linear regression (CYP2C9 [6]; [13]): -
- Global Ki, non-linear regression (CYP2C9 [6]; [14]): -

Compound: CCc1oc2ccccc2c1C(=O)c1ccc(OC)cc1 [MeOBzr]
- Global Ki, linear regression (CYP2C9 [6]; [13]): -
- Global Ki, non-linear regression (CYP2C9 [6]; [14]): -
- Ki ([3]; Microsomes+Diclof, 0.5 µM CYP, 200 µM diclofenac, 400 µM NADPH, read-out: Global Ki, linear regression): 242 nM

Compound: Benzothiadiazole
- Relative percentage of hydroxylated product formed vs positive control (CYP3A4; 80 µM Diclof): 17%
- Relative percentage of hydroxylated product formed vs positive control (CYP3A4; 80 µM pNP): ∼15%
- Relative percentage of hydroxylated product formed vs positive control (CYP2E1 [2]; CYP2E1 baculosomes 20 nM, 80 µM pNP, inhibitor equivalent amount, 30 minutes): 15%
- Relative percentage of hydroxylated product formed vs positive control (CYP2C9 [6]; CYP2C9 baculosomes 20 nM, 80 µM Diclof, inhibitor equivalent amount, 250 µM NADPH, 30 minutes): 90.1%
- Relative percentage of hydroxylated product formed vs positive control (CYP2D6; 80 µM Diclof): 0.3%
- Relative percentage of hydroxylated product formed vs positive control (CYP2D6; 80 µM pNP): ∼15%

Compound: vitamin E [Vit. E]
- Ki (in words) (CYP2C9 [6]; baculosome reaction setup): ∼nM
